Experimental data reported in ChEMBL document CHEMBL1201862, “PubChem BioAssay data set” (2004).
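Results reflect a 48-hour exposure of cells in 96-well plates to compound at five concentrations. The concentration for 50% growth inhibition is given as GI50.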 Active and inactive are the calls of the source. Cut-off read from the data, not from the text of the source: active = GI50 up to about 1.1 µM and inactive = higher.

Tests used:
Assay in all cases: NCI tumour cell line growth inhibition, 48 h
786-0 = tested on: 786-0
A498 = tested on: A498
A549 = tested on: A549
ACHN = tested on: ACHN
BT-549 = tested on: BT-549
CAKI-1 = tested on: CAKI-1
CCRF-CEM = tested on: CCRF-CEM
COLO 205 = tested on: COLO 205
DU-145 = tested on: DU-145
EKVX = tested on: EKVX
HCC 2998 = tested on: HCC 2998
HCT-116 = tested on: HCT-116
HCT-15 = tested on: HCT-15
HL-60 = tested on: HL-60
HOP-62 = tested on: HOP-62
HOP-92 = tested on: HOP-92
HT-29 = tested on: HT-29
Hs-578T = tested on: Hs-578T
IGROV-1 = tested on: IGROV-1
K562 = tested on: K562
KM12 = tested on: KM12
LOX IMVI = tested on: LOX IMVI
M14 = tested on: M14
MCF7 = tested on: MCF7
MDA-MB-231 = tested on: MDA-MB-231
MDA-MB-435 = tested on: MDA-MB-435
MDA-N = tested on: MDA-N
MOLT-4 = tested on: MOLT-4
Malme-3M = tested on: Malme-3M
NCI-H23 = tested on: NCI-H23
NCI-H460 = tested on: NCI-H460
NCI-H522 = tested on: NCI-H522
NCI/ADR-RES = tested on: NCI/ADR-RES
OVCAR-3 = tested on: OVCAR-3
OVCAR-4 = tested on: OVCAR-4
OVCAR-5 = tested on: OVCAR-5
OVCAR-8 = tested on: OVCAR-8
PC-3 = tested on: PC-3
RPMI-8226 = tested on: RPMI-8226
RXF 393 = tested on: RXF 393
SF-268 = tested on: SF-268
SF-295 = tested on: SF-295
SF-539 = tested on: SF-539
SK-MEL-28 = tested on: SK-MEL-28
SK-MEL-2 = tested on: SK-MEL-2
SK-MEL-5 = tested on: SK-MEL-5
SK-OV-3 = tested on: SK-OV-3
SN12C = tested on: SN12C
SNB-19 = tested on: SNB-19
SNB-75 = tested on: SNB-75
SR = tested on: SR
SW-620 = tested on: SW-620
T47D = tested on: T47D
TK-10 = tested on: TK-10
U-251 = tested on: U-251
UACC-257 = tested on: UACC-257
UACC-62 = tested on: UACC-62
UO-31 = tested on: UO-31
NCI-H226 = tested on: NCI-H226

Measured: GI50

CN(Cc1c2ccccc2cc2ccccc12)S(=O)(=O)c1ccc(-c2c3nc(c(-c4ccc(S(=O)(=O)N(C)Cc5c6ccccc6cc6ccccc56)cc4)c4ccc([nH]4)c(-c4ccc(S(=O)(=O)N(C)Cc5c6ccccc6cc6ccccc56)cc4)c4nc(c(-c5ccc(S(=O)(=O)N(C)Cc6c7ccccc7cc7ccccc67)cc5)c5ccc2[nH]5)C=C4)C=C3)cc1
> 100 µM: HCT-15
inactive: 786-0 53.1 µM | A498 > 100 µM | A549 > 100 µM | ACHN > 100 µM | BT-549 > 100 µM | CAKI-1 > 100 µM | CCRF-CEM > 100 µM | COLO 205 > 100 µM | DU-145 > 100 µM | EKVX > 100 µM | HCC 2998 > 100 µM | HCT-116 > 100 µM | HL-60 > 100 µM | HOP-62 30.3 µM | HOP-92 29.2 µM | HT-29 > 100 µM | Hs-578T 57.8 µM | IGROV-1 > 100 µM | K562 > 100 µM | KM12 > 100 µM | LOX IMVI > 100 µM | M14 > 100 µM | MCF7 > 100 µM | MDA-MB-231 > 100 µM | MDA-MB-435 > 100 µM | MDA-N > 100 µM | MOLT-4 > 100 µM | Malme-3M > 100 µM | NCI-H23 > 100 µM | NCI-H460 > 100 µM | NCI-H522 > 100 µM | NCI/ADR-RES > 100 µM | OVCAR-3 > 100 µM | OVCAR-4 > 100 µM | OVCAR-5 > 100 µM | OVCAR-8 > 100 µM | PC-3 > 100 µM | RPMI-8226 > 100 µM | RXF 393 42.1 µM | SF-268 > 100 µM | SF-295 63.7 µM | SF-539 99.1 µM | SK-MEL-28 > 100 µM | SK-MEL-2 > 100 µM | SK-MEL-5 > 100 µM | SK-OV-3 > 100 µM | SN12C > 100 µM | SNB-19 44 µM | SNB-75 24.4 µM | SR > 100 µM | SW-620 > 100 µM | T47D > 100 µM | TK-10 > 100 µM | U-251 47.2 µM | UACC-257 > 100 µM | UACC-62 > 100 µM | UO-31 > 100 µM

CC(C)CC1c2[nH]c3ccccc3c2C[C@H]2C(=O)NC(CCC(=O)OC(C)(C)C)C(=O)N12 (stereo partly specified)
inactive: 786-0 43 µM | A498 40.4 µM | A549 34 µM | ACHN 30.8 µM | BT-549 33.5 µM | CAKI-1 42.4 µM | COLO 205 20.6 µM | DU-145 47.1 µM | EKVX 35.2 µM | HCT-116 28.8 µM | HL-60 28.1 µM | HOP-62 23 µM | HOP-92 27.5 µM | HT-29 21.1 µM | Hs-578T 15.1 µM | IGROV-1 33.5 µM | K562 36.9 µM | KM12 40.6 µM | LOX IMVI 22.9 µM | M14 36.7 µM | MCF7 36.9 µM | MDA-MB-231 27.2 µM | MDA-MB-435 36 µM | MDA-N 30.7 µM | MOLT-4 22.6 µM | Malme-3M 24.4 µM | NCI-H226 49.7 µM | NCI-H23 34.6 µM | NCI-H522 25.2 µM | NCI/ADR-RES 30.3 µM | OVCAR-3 16.8 µM | OVCAR-4 37.3 µM | OVCAR-5 34.3 µM | OVCAR-8 39.3 µM | PC-3 23.4 µM | RPMI-8226 25.8 µM | RXF 393 19.1 µM | SF-268 27.4 µM | SF-295 19.4 µM | SK-MEL-28 52.1 µM | SK-MEL-2 18.4 µM | SK-MEL-5 25.9 µM | SK-OV-3 42.5 µM | SN12C 22.8 µM | SNB-19 37.3 µM | SR 22 µM | SW-620 45 µM | T47D 15.8 µM | TK-10 25.8 µM | U-251 29 µM | UACC-257 25.9 µM | UACC-62 30.5 µM | UO-31 33 µM
33.8 µM: HCT-15

Cn1c(=O)n2n(c1=O)C(C)(C13CC4CC(CC(C4)C1)C3)C13CC4CC(CC1C4)CC23 (stereo unspecified)
> 100 µM: HCT-15
inactive: A498 > 100 µM | A549 > 100 µM | ACHN > 100 µM | BT-549 > 100 µM | CAKI-1 > 100 µM | CCRF-CEM > 100 µM | COLO 205 > 100 µM | DU-145 > 100 µM | EKVX > 100 µM | HL-60 6.76 µM | HOP-62 > 100 µM | HOP-92 > 100 µM | HT-29 > 100 µM | Hs-578T > 100 µM | IGROV-1 > 100 µM | K562 87.1 µM | KM12 > 100 µM | M14 > 100 µM | MCF7 > 100 µM | MDA-MB-231 > 100 µM | MDA-MB-435 > 100 µM | MDA-N > 100 µM | MOLT-4 89.9 µM | NCI-H226 > 100 µM | NCI-H23 > 100 µM | NCI-H460 > 100 µM | NCI/ADR-RES > 100 µM | OVCAR-3 > 100 µM | OVCAR-5 > 100 µM | OVCAR-8 > 100 µM | PC-3 > 100 µM | RPMI-8226 > 100 µM | SF-268 > 100 µM | SF-295 > 100 µM | SF-539 > 100 µM | SK-MEL-28 > 100 µM | SK-MEL-2 > 100 µM | SK-MEL-5 > 100 µM | SK-OV-3 > 100 µM | SN12C > 100 µM | SNB-19 > 100 µM | SNB-75 > 100 µM | SR > 100 µM | SW-620 > 100 µM | T47D > 100 µM | TK-10 > 100 µM | U-251 > 100 µM | UACC-257 > 100 µM | UACC-62 > 100 µM | UO-31 > 100 µM

CCOC(=O)C1(C(=O)OCC)CC(=O)[C@@]2(C1)OCC[C@H]1OC(=O)C[C@H]12
inactive: 786-0 > 100 µM | A498 > 100 µM | A549 > 100 µM | ACHN > 100 µM | BT-549 > 100 µM | CAKI-1 > 100 µM | CCRF-CEM > 100 µM | COLO 205 > 100 µM | DU-145 > 100 µM | EKVX > 100 µM | HCC 2998 > 100 µM | HCT-116 > 100 µM | HL-60 > 100 µM | HOP-62 > 100 µM | HOP-92 > 100 µM | HT-29 > 100 µM | Hs-578T > 100 µM | IGROV-1 > 100 µM | KM12 > 100 µM | LOX IMVI > 100 µM | M14 > 100 µM | MCF7 > 100 µM | MDA-MB-231 > 100 µM | MDA-MB-435 > 100 µM | MDA-N > 100 µM | MOLT-4 > 100 µM | Malme-3M > 100 µM | NCI-H23 > 100 µM | NCI-H460 > 100 µM | NCI-H522 > 100 µM | NCI/ADR-RES > 100 µM | OVCAR-3 > 100 µM | OVCAR-4 > 100 µM | OVCAR-5 > 100 µM | OVCAR-8 > 100 µM | PC-3 > 100 µM | RPMI-8226 > 100 µM | SF-268 > 100 µM | SF-295 > 100 µM | SF-539 > 100 µM | SK-MEL-28 > 100 µM | SK-MEL-2 > 100 µM | SK-MEL-5 > 100 µM | SN12C > 100 µM | SNB-19 > 100 µM | SNB-75 > 100 µM | SR > 100 µM | SW-620 > 100 µM | T47D > 100 µM | TK-10 > 100 µM | U-251 > 100 µM | UACC-257 > 100 µM | UACC-62 > 100 µM | UO-31 > 100 µM
> 100 µM: HCT-15

CN(C)c1ccc(/C=C2\N=C(c3ccccc3)N(c3nc4c(Cl)cc(Cl)cc4s3)C2=O)cc1
active: CCRF-CEM 0.731 µM
inactive: 786-0 77.1 µM | A498 27.4 µM | A549 49.9 µM | ACHN 59 µM | BT-549 54.3 µM | CAKI-1 41.8 µM | COLO 205 55.8 µM | DU-145 > 100 µM | EKVX 21.8 µM | HCC 2998 45.2 µM | HCT-116 35.2 µM | HL-60 24.9 µM | HOP-62 > 100 µM | HOP-92 24.5 µM | HT-29 38.4 µM | Hs-578T 27 µM | IGROV-1 41 µM | K562 31.6 µM | KM12 34.2 µM | LOX IMVI 38.3 µM | M14 75.7 µM | MCF7 31.6 µM | MDA-MB-231 29.7 µM | MDA-MB-435 21.2 µM | MDA-N 22.9 µM | MOLT-4 22.6 µM | NCI-H460 27.7 µM | NCI/ADR-RES 43.7 µM | OVCAR-3 64.4 µM | OVCAR-4 39.2 µM | OVCAR-5 57.9 µM | OVCAR-8 61.9 µM | PC-3 32.4 µM | RPMI-8226 14.9 µM | SF-268 48.6 µM | SF-295 93.8 µM | SF-539 > 100 µM | SK-MEL-28 54.6 µM | SK-MEL-2 49.9 µM | SK-MEL-5 41.8 µM | SK-OV-3 > 100 µM | SN12C 44 µM | SNB-19 82.4 µM | SR 32.1 µM | SW-620 46.6 µM | T47D 52.5 µM | TK-10 85.7 µM | U-251 55.3 µM | UACC-257 47 µM | UACC-62 33.1 µM | UO-31 43.8 µM
43.6 µM: HCT-15
